Measurements as given in patent US20160237044A1, “SUBSTITUTED PHENYLALANINE DERIVATIVES” (BAYER PHARMA AKTIENGESELLSCHAFT, priority 2013, published 2016).
Where a name gives a salt, the structure may show the parent alone.

Assays:
[1] = test system: plasma; experiment: Determination of anticoagulatory activity: activated partial thromboplastin time (aPTT) in plasma; format: biochemical, human; settings: concentration of test substance which brings about a 1.5-fold extension of the aPTT, C.K. Prest kit, 37° C.
Experimental: a.4) Determination of Anticoagulatory Activity
The anticoagulatory activity of the test substances is determined in vitro in human and animal plasma (for example mouse, rat, rabbit, pig and dog plasma). To this end, blood is drawn off in a mixing ratio of sodium citrate/blood of 1:9 using a 0.11 molar sodium citrate solution as receiver. Immediately after the blood has been drawn off, it is mixed thoroughly and centrifuged at about 4000 g for 15 minutes. The supernatant is pipetted off.
The activated partial thromboplastin time (aPTT) is determined in the presence of varying concentrations of test substance or the corresponding solvent using a commercial test kit (C.K. Prest from Diagnostica Stago). The test compounds are incubated with the plasma and the PTT reagent (cephalin, kaolin) at 37° C. for 3 minutes. Coagulation is then started by addition of a 25 mM aqueous calcium chloride solution, and the time when coagulation occurs is determined. The concentration of test substance which brings about a 1.5-fold extension of the aPTT is determined.

[2] = molecular target: T1, human plasmin (Homo sapiens, UniProt P00747); experiment: Measurement of plasmin inhibition (fluorogenic peptide substrate MeOSuc-Ala-Phe-Lys-AMC); format: biochemical; settings: plasmin from Kordia, 15 min preincubation, 30 min at 22° C., fluorescence
T1 construct: purchased Kordia
T1 sequence (P00747 581-810 limits assumed): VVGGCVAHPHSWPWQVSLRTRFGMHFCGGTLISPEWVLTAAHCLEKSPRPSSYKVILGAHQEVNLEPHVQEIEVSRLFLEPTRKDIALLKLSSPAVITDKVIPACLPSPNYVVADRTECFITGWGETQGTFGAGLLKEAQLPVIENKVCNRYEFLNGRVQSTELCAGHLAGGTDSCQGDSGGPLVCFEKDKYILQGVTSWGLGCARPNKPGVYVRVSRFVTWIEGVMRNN
T1 sequence (P00747 97-580 partner limits assumed): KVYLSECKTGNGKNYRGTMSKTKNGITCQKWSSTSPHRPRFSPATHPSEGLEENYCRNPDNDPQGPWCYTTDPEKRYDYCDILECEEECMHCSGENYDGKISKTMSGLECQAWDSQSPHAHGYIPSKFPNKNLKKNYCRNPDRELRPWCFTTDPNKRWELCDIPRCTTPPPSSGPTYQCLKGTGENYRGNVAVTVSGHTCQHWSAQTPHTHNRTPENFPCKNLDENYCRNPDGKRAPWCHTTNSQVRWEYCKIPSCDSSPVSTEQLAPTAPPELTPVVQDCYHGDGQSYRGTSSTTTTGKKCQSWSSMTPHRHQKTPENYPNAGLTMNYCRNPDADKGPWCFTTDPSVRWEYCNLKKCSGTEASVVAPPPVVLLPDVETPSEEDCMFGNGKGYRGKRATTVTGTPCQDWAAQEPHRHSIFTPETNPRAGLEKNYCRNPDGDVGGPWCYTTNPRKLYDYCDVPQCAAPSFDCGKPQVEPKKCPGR
Experimental: a.6) Measurement of Plasmin Inhibition
(§1) The plasmin inhibition of the inventive substances is determined using a biochemical test system which utilizes the reaction of a peptidic plasmin substrate to determine the enzymatic activity of human plasmin. Here, plasmin cleaves from the peptic plasmin substrate the C-terminal aminomethylcoumarin (AMC), the fluorescence of which is measured. The determinations are carried out in microtitre plates.
(§2) Test substances are dissolved in dimethyl sulphoxide and serially diluted in dimethyl sulphoxide (3000 μM to 0.0078 μM; resulting final concentrations in the test: 50 μM to 0.00013 μM). In each case 1 μl of the diluted substance solutions is placed into the wells of white microtitre plates from Greiner (384 wells). […] After 15 min of incubation, the enzyme reaction is started by addition of 20 μl of the plasmin substrate MeOSuc-Ala-Phe-Lys-AMC dissolved in assay buffer (150 μM in assay buffer) from Bachem, the mixture is incubated at room temperature (22° C.) for 30 min and fluorescence is then measured (excitation: 360 nm, emission: 460 nm). The measured emissions of the test batches with test substance are compared to those of control batches without test substance (only dimethyl sulphoxide instead of test substance in dimethyl sulphoxide), and IC50 values are calculated from the concentration/activity relationships.

[3] = molecular target: T2, human factor XIa (Homo sapiens, UniProt P03951); experiment: Measurement of FXIa inhibition (fluorogenic peptide substrate Boc-Glu(OBzl)-Ala-Arg-AMC); format: biochemical; settings: factor XIa from Kordia, 15 min preincubation, 30 min at 22° C., fluorescence; read-out: IC50
T2 construct: purchased Kordia
T2 sequence (P03951 388-625 limits assumed): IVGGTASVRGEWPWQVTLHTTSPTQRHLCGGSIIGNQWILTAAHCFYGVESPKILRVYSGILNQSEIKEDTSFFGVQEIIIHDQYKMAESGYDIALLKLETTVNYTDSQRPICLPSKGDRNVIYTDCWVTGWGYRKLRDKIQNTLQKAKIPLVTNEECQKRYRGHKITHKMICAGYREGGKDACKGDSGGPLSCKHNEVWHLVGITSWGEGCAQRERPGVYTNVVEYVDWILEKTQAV
T2 sequence (P03951 19-387 partner limits assumed): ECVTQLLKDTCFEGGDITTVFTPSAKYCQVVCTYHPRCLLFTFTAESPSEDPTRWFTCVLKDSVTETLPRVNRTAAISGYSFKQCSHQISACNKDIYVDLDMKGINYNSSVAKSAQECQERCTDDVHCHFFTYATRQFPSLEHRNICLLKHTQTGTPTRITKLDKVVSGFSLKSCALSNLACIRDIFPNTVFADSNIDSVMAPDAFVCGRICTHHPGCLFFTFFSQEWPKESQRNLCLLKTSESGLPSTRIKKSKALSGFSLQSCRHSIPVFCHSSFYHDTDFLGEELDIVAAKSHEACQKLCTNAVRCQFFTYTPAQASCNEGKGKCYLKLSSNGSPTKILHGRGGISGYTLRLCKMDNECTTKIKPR
Experimental: a.1) Measurement of FXIa Inhibition
as §1, with “factor XIa” for “plasmin”, “the” for “the inventive”, “substances according to the invention” for “substances”, “factor XIa.” for “plasmin.”
as §2, with “In” for “Test substances are dissolved in dimethyl sulphoxide and serially diluted in dimethyl sulphoxide (3000 μM to 0.0078 μM; resulting final concentrations in the test: 50 μM to 0.00013 μM). In”, “factor XIa” for “plasmin”, “Boc-Glu(OBzl)-Ala-Arg-AMC” for “MeOSuc-Ala-Phe-Lys-AMC”, “(10” for “(150”

SMILES | Concentration for 1.5-fold aPTT extension [1] | IC50 [2] | IC50 [3]
Cc1cc(S(=O)(=O)NC2CC2)ccc1-c1ccc(C[C@H](NC(=O)[C@H]2CC[C@H](CN)CC2)C(=O)Nc2ccc3c(=O)[nH][nH]c3c2)cc1 [Example 12, trans-4-(Aminomethyl)-N-{(2S)-3-[4′-(cyclopropylsulphamoyl)-2′-methylbiphenyl-4-yl]-1-oxo-1-[(3-oxo-2,3-dihydro-1H-indazol-6-yl)amino]propan-2-yl}cyclohexanecarboxamide hydrochloride] | 0.04 µmol/L | 30 nM | 2.7 nM
Cc1cc(S(=O)(=O)N2CCCC2)ccc1-c1ccc(C[C@H](NC(=O)[C@H]2CC[C@H](CN)CC2)C(=O)Nc2ccc3c(=O)[nH][nH]c3c2)cc1 [Example 15, trans-4-(Aminomethyl)-N-{(2S)-3-[2′-methyl-4′-(pyrrolidin-1-ylsulphonyl)biphenyl-4-yl]-1-oxo-1-[(3-oxo-2,3-dihydro-1H-indazol-6-yl)amino]propan-2-yl}cyclohexanecarboxamide hydrochloride] | 0.09 µmol/L | 23 nM | 2.8 nM
CNS(=O)(=O)c1ccc(-c2ccc(C[C@H](NC(=O)[C@H]3CC[C@H](CN)CC3)C(=O)Nc3ccc4c(=O)[nH][nH]c4c3)cc2)c(C)c1 [Example 18, trans-4-(Aminomethyl)-N-{(2S)-3-[2′-methyl-4′-(methylsulphamoyl)biphenyl-4-yl]-1-oxo-1-[(3-oxo-2,3-dihydro-1H-indazol-6-yl)amino]propan-2-yl}cyclohexanecarboxamide hydrochloride] | 0.13 µmol/L | – | 5.4 nM
NC[C@H]1CC[C@H](C(=O)N[C@@H](Cc2ccc(-c3ccc(S(=O)(=O)NCCO)cc3)cc2)C(=O)Nc2ccc(-c3nnc(Cl)[nH]3)cc2)CC1 [Example 19, trans-4-(Aminomethyl)-N-[(2S)-1-{[4-(5-chloro-4H-1,2,4-triazol-3-yl)phenyl]amino}-3-{4′-[(2-hydroxyethyl)sulphamoyl]biphenyl-4-yl}-1-oxopropan-2-yl]cyclohexanecarboxamide hydrochloride] | 0.16 µmol/L | – | 2.3 nM
Cc1cc(S(N)(=O)=O)ccc1-c1ccc(C[C@H](NC(=O)[C@H]2CC[C@H](CN)CC2)C(=O)Nc2ccc(-c3nnc(Cl)[nH]3)cc2)cc1 [Example 20, trans-4-(Aminomethyl)-N-[(2S)-1-{[4-(3-chloro-4H-1,2,4-triazol-5-yl)phenyl]amino}-3-(2′-methyl-4′-sulphamoylbiphenyl-4-yl)-1-oxopropan-2-yl]cyclohexanecarboxamide hydrochloride] | 0.18 µmol/L | – | 1.8 nM
CS(=O)(=O)c1ccc(-c2ccc(C[C@H](NC(=O)[C@H]3CC[C@H](CN)CC3)C(=O)Nc3ccc(-c4nn[nH]n4)cc3)cc2)c(C(F)(F)F)c1 [Example 21, trans-4-(Aminomethyl)-N-[(2S)-3-[4′-(methylsulphonyl)-2′-(trifluoromethyl)biphenyl-4-yl]-1-oxo-1-{[4-(2H-tetrazol-5-yl)phenyl]amino}propan-2-yl]cyclohexanecarboxamide hydrochloride] | 0.23 µmol/L | – | 0.9 nM
NC[C@H]1CC[C@H](C(=O)N[C@@H](Cc2ccc(-c3ccc(S(N)(=O)=O)cc3)cc2)C(=O)Nc2ccc(-c3nnc(Cl)[nH]3)cc2)CC1 [Example 22, trans-4-(Aminomethyl)-N-[(2S)-1-{[4-(3-chloro-4H-1,2,4-triazol-5-yl)phenyl]amino}-1-oxo-3-(4′-sulphamoylbiphenyl-4-yl)propan-2-yl]cyclohexanecarboxamide hydrochloride] | 0.25 µmol/L | – | 1.5 nM
Cc1cc(C#N)ccc1-c1ccc(C[C@H](NC(=O)[C@H]2CC[C@H](CN)CC2)C(=O)Nc2ccc(-c3nn[nH]n3)cc2)cc1 [Example 23, trans-4-(Aminomethyl)-N-[(2S)-3-(4′-cyano-2′-methylbiphenyl-4-yl)-1-oxo-1-{[4-(2H-tetrazol-5-yl)phenyl]amino}propan-2-yl]cyclohexanecarboxamide hydrochloride] | 0.27 µmol/L | – | 1.1 nM
Cc1cc(S(=O)(=O)N(C)C)ccc1-c1ccc(C[C@H](NC(=O)[C@H]2CC[C@H](CN)CC2)C(=O)Nc2ccc(-c3nn[nH]n3)c(F)c2)cc1 [Example 24, trans-4-(Aminomethyl)-N-[(2S)-3-[4′-(dimethylsulphamoyl)-2′-methylbiphenyl-4-yl]-1-{[3-fluoro-4-(2H-tetrazol-5-yl)phenyl]amino}-1-oxopropan-2-yl]cyclohexanecarboxamide hydrochloride] | 0.27 µmol/L | – | 0.4 nM
NC[C@H]1CC[C@H](C(=O)N[C@@H](Cc2ccc(-c3ccc(N4CCOCC4=O)cc3)cc2)C(=O)Nc2ccc(-c3nn[nH]n3)cc2)CC1 [Example 25, trans-4-(Aminomethyl)-N-[(2S)-1-oxo-3-[4′-(3-oxomorpholin-4-yl)biphenyl-4-yl]-1-{[4-(2H-tetrazol-5-yl)phenyl]amino}propan-2-yl]cyclohexanecarboxamide hydrochloride] | 0.36 µmol/L | – | 2.5 nM
CC(=O)Nc1ccc(-c2ccc(C[C@H](NC(=O)[C@H]3CC[C@H](CN)CC3)C(=O)Nc3ccc(-c4nn[nH]n4)cc3)cc2)cc1F [Example 26, trans-N-[(2S)-3-(4′-Acetamido-3′-fluorobiphenyl-4-yl)-1-oxo-1-{[4-(2H-tetrazol-5-yl)phenyl]-amino}propan-2-yl]-4-(aminomethyl)cyclohexanecarboxamide hydrochloride] | 0.4 µmol/L | – | 4.7 nM
COc1ccc(-c2ccc(C[C@H](NC(=O)[C@H]3CC[C@H](CN)CC3)C(=O)Nc3ccc(-c4nn[nH]n4)cc3)cc2)c(C(F)(F)F)c1 [Example 27, trans-4-(Aminomethyl)-N-[(2S)-3-[4′-methoxy-2′-(trifluoromethyl)biphenyl-4-yl]-1-oxo-1-{[4-(2H-tetrazol-5-yl)phenyl]amino}propan-2-yl]cyclohexanecarboxamide hydrochloride] | 0.21 µmol/L | – | 4.5 nM
CN(C)C1CCC(NS(=O)(=O)c2ccc(-c3ccc(C[C@H](NC(=O)[C@H]4CC[C@H](CN)CC4)C(=O)Nc4ccc5[nH]c(=O)[nH]c5c4)cc3)c(C(F)(F)F)c2)CC1 (stereo partly drawn) [Example 28, trans-4-(Aminomethyl)-N-{(2S)-3-[4′-{[4-(dimethylamino)cyclohexyl]sulphamoyl}-2′-(trifluoromethyl)biphenyl-4-yl]-1-oxo-1-[(2-oxo-2,3-dihydro-1H-benzimidazol-5-yl)amino]propan-2-yl}cyclohexanecarboxamide hydrochloride] | 0.06 µmol/L | – | 5.2 nM
